The assay concerns hedgehog signaling pathway. The experiment in a line: Gli-Luc Reporter Assay for Hh Pathway Inhibition (TMHh-12 cells, pTA-8×Gli-Luc reporter). It counts as cell-based, Mouse. An outline of the steps:
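Mouse TM3 cells stably carrying an 8×Gli-firefly luciferase reporter, in 2% FBS medium; pathway activated with recombinant mouse Shh (8 μg/mL) or Smo agonist, compounds added at varying concentrations for 48 h. Luminescence read; IC50 at 50% signal reduction. Toxicity checked in TM3 cells (CellTiter-Glo) or constitutive-luciferase TM3-Luc cells.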
(In general: Reporter assays use an easily measured gene product as a stand-in for the process of interest.)

Where [1] appears, read: Mus musculus, TMHh12, enzymatic and cellular assays for the inhibition of hedgehog signaling pathways, read-out: IC50 Ranges.
The mark [2] stands for this setting: Mus musculus, TMHh12, Ag1.5 1 nM, read-out: Hedgehog Inhibition IC50 (nM) (Ag1.5 1 nM).

Read-outs that look alike come from different tables or passages of the source.

The IC50 is the concentration that inhibits the measured activity by half. As for `CCOc1ccc(-c2cc(Nc3cccc4c3CCN(C3CCS(=O)(=O)CC3)C4)ccc2C)nn1` [Compound 327], the IC50 under setting [1] is 1 to 10 nM. For `CC(C(=O)O)N1CCc2c(Nc3ccc(Cl)c(-c4nc(-c5ccccc5)c[nH]4)c3)cccc2C1=O` (stereo not drawn) [Compound 77], the IC50 under setting [1] was 100 to 1000 nM. Same read-out and setting: the figure for `OCC1(N2CCc3c(cccc3Nc3ccc(Cl)c(-c4ncc(-c5ccccc5)[nH]4)c3)C2)CC1` [Compound 84] is 0.001 to 1 nM. With `CC(CO)(CO)C(=O)N1CCc2c(cccc2Nc2ccc(Cl)c(-c3ncc(-c4ccccc4)[nH]3)c2)C1` [Compound 2], the IC50 by setting is: under setting [2], 0.45 nM; under setting [1], 0.001 to 1 nM.

With `CS(=O)(=O)N1CCc2c(cccc2Nc2ccc(Cl)c(-c3ccc(C#N)cc3)c2)C1` [Compound 134], the IC50 under setting [1] fell in the range of 10 to 100 nM. Consider `CS(=O)(=O)N1CCc2c(cccc2Nc2cc(-c3nc4ccccc4[nH]3)c(Cl)cn2)C1` [Compound 126], for which, under setting [1], the IC50 lay within 10 to 100 nM. For `CNS(=O)(=O)N1CCc2c(cccc2Nc2ccc(Cl)c(-c3ncc(-c4ccccc4)[nH]3)c2)C1` [Compound 25], the IC50 under setting [1] lay within 1 to 10 nM. Still for that read-out and setting: for `COc1ccc(-c2cnc(-c3cc(Nc4cccc5c4CCN(S(C)(=O)=O)C5)ccc3C)[nH]2)cn1` [Compound 100] the value was 0.001 to 1 nM; for `CS(=O)(=O)N1CCc2c(cccc2Nc2ccc(Cl)c(C(=O)Nc3ccccc3)n2)C1` [Compound 226], 0.001 to 1 nM; for `CCOc1ccc(-c2cc(Nc3cccc4c3CCN(CCS(=O)(=O)CC)C4)ccc2C)nn1` [Compound 297], 1 to 10 nM. For the compound `Cc1ccc(Nc2cccc3c2CCN(C2CCS(=O)(=O)C2)C3)cc1-c1ncc(F)cc1F` (stereo not drawn) [Compound 338], the IC50 (enzymatic and cellular assays for the inhibition of hedgehog signaling pathways, read-out: IC50 Ranges) lay within 0.001 to 1 nM. Consider `Cc1nc(-c2ccc(-c3cc(Nc4cccc5c4CCN(S(C)(=O)=O)C5)ccc3C)cc2)cs1` [Compound 120], for which the IC50 under setting [1] lay in the range of 10 to 100 nM. On to `O=C(O)CCN1CCc2c(Nc3ccc(Cl)c(-c4nc(-c5ccccc5)c[nH]4)c3)cccc2C1=O` [Compound 50], for which the IC50 under setting [1] fell in the range of 10 to 100 nM. For `Cc1ccc(Nc2cccc3c2CCN(S(C)(=O)=O)C3)cc1-c1ccc(C(=O)NCCO)cc1` [Compound 145], under setting [1], the IC50 was in the range of 100 to 1000 nM. On to `Cc1ccc(-c2cc(Nc3cccc4c3CCN(CCC(F)(F)F)C4)ccc2C)nc1` [Compound 251], for which, under setting [1], the IC50 was 0.001 to 1 nM.

With `CCOc1ccc(-c2nc(Nc3cccc4c3CCN(S(=O)(=O)C(C)C)C4)ccc2C)nn1` [Compound 328], under setting [1], the IC50 lay in the range of 1 to 10 nM. As for `O=C1c2cccc(Nc3ccc(Cl)c(-c4ncc(-c5ccccc5)[nH]4)c3)c2CCN1C1(CO)CC1` [Compound 88], the IC50 under setting [1] lay in the range of 0.001 to 1 nM. As to `O=S1(=O)CCC(N2CCc3c(cccc3Nc3ccc(Cl)c(-c4ncc(-c5ccccc5)[nH]4)c3)C2)CC1` [Compound 3], the IC50 by setting is: under setting [2], 0.06 nM; under setting [1], 0.001 to 1 nM. In the case of `Clc1ccc(Nc2cccc3c2CCN(Cc2nn[nH]n2)C3)cc1-c1ncc(-c2ccccc2)[nH]1` [Compound 86], the IC50 under setting [1] was in the range of 1 to 10 nM.

Take `CC1(C)OC[C@H](CN2CCC(N3CCc4c(cccc4Nc4ccc(Cl)c(-c5ncc(-c6ccccc6)[nH]5)c4)C3)CC2)O1` [Compound 28]: the IC50 under setting [1] lay in the range of 1 to 10 nM. `Cc1ccc(-c2cc(Nc3ncnc4c3CCN(S(=O)(=O)C(C)C)C4)ccc2C)nc1` [Compound 292]: the IC50 under setting [1] is 1 to 10 nM. On to `[O-][n+]1ccc(N2CCc3c(cccc3Nc3ccc(Cl)c(-c4ncc(-c5ccccc5)[nH]4)c3)C2)cc1` [Compound 49], for which the IC50 under setting [1] lay in the range of 1 to 10 nM. On the same count and under the same terms, for `CCOc1ccc(-c2cc(Nc3cccc4c3CCN(S(C)(=O)=O)C4)ccc2C)nn1` [Compound 271] the value was 0.001 to 1 nM; for `Cc1ccc(Nc2cccc3c2CCN(S(C)(=O)=O)C3)cc1-c1ccc(-c2ccco2)cc1` [Compound 121], 100 to 1000 nM. With `Cc1ccc(Nc2cccc3c2CCN(CCS(C)(=O)=O)C3)cc1-c1ccc(C(F)(F)F)cn1` [Compound 259], under setting [1], the IC50 was 1 to 10 nM. Consider `COc1cc2[nH]c(-c3cc(Nc4cccc5c4CCN(S(C)(=O)=O)C5)ccc3C)nc2cn1` [Compound 110], for which the IC50 under setting [1] lay in the range of 10 to 100 nM. As for `CCOc1cnc(-c2cc(Nc3cccc4c3CCN(CCS(C)(=O)=O)C4)ccc2C)cn1` [Compound 310], the IC50 under setting [1] fell in the range of 1 to 10 nM. Take `CCC(CC)(C(=O)O)C(=O)N1CCc2c(cccc2Nc2ccc(Cl)c(-c3nc(-c4ccccc4)c[nH]3)c2)C1` [Compound 66]: the IC50 by setting is: under setting [2], 5.3 nM; under setting [1], 1 to 10 nM. `COc1ccnc(-c2cc(Nc3cccc4c3CCN(S(C)(=O)=O)C4)ccc2C)c1` [Compound 230]: under setting [1], the IC50 is 0.001 to 1 nM. Consider `CCOc1cnc(-c2cc(Nc3cccc4c3CCN(C3CCS(=O)(=O)C3)C4)ccc2C)cn1` (stereo not drawn) [Compound 308], for which the IC50 under setting [1] was in the range of 1 to 10 nM. In the case of `CN(C)CC(C)(C)CN1CCc2c(cccc2Nc2ccc(Cl)c(-c3ncc(-c4ccccc4)[nH]3)c2)C1` [Compound 54], the IC50 under setting [1] lay within 0.001 to 1 nM. For `Cc1ccc(Nc2cccc3c2CCN(S(C)(=O)=O)C3)cc1-c1ccc(C#N)nn1` [Compound 207], the IC50 under setting [1] lay within 10 to 100 nM.

As for `Cc1ccc(Nc2ncnc3c2CCN(C2CS(=O)(=O)C2)C3)cc1-c1cc2ccccc2cn1` [Compound 304], under setting [1], the IC50 is 10 to 100 nM. For the compound `COc1cncc(-c2cc(Nc3cccc4c3CCN(S(C)(=O)=O)C4)ccc2C)n1` [Compound 255], under setting [1], the IC50 lay within 100 to 1000 nM. Still for that read-out and setting: the figure for `Cc1ccc(Nc2cccc3c2CCN(S(C)(=O)=O)C3)cc1-c1ccc2ccccc2n1` [Compound 231] is 0.001 to 1 nM; for `CCOc1cnc(-c2nc(Nc3cccc4c3CCN(S(=O)(=O)CC)C4)ccc2C)cn1` [Compound 330] it is 1 to 10 nM. Turning to `Cc1cc2c(cn1)cc(-c1cc(Nc3cccc4c3CCN(S(C)(=O)=O)C4)ccc1C)c(=O)n2C` [Compound 116], the IC50 runs as follows: under setting [2], 694 nM; under setting [1], 100 to 1000 nM.

Regarding `Cc1ccc(Nc2cccc3c2CCN(S(C)(=O)=O)C3)cc1-c1nc2ccccc2o1` [Compound 105], the IC50 under setting [1] was 1 to 10 nM.

Regarding `Cc1ccc(Nc2cccc3c2CCN(CC(C)(C)O)C3)cc1-c1ccc(C#N)cn1` [Compound 199], the IC50 under setting [1] lay within 1 to 10 nM.

Consider `Cc1ccc(-c2nc(Nc3cccc4c3CCN(CCS(C)(=O)=O)C4)ccc2C)nc1` [Compound 309], for which the IC50 under setting [1] was in the range of 10 to 100 nM. For the compound `Cc1ccnc(-c2cc(Nc3cccc4c3CCN(S(C)(=O)=O)C4)ccc2C)c1` [Compound 192], the IC50 under setting [1] lay in the range of 0.001 to 1 nM. In the case of `Cc1ccc(-c2cc(Nc3cccc4c3CCN(CCS(C)(=O)=O)C4)ccc2C)nc1` [Compound 223], the IC50 under setting [1] is 0.001 to 1 nM. Regarding `Clc1ccc(Nc2cccc3c2CCN(Cc2cccnc2)C3)cc1-c1ncc(-c2ccccc2)[nH]1` [Compound 51], the IC50 under setting [2] is 11 nM and the IC50 under setting [1] was 10 to 100 nM.

As for `Cc1ccc(Nc2cccc3c2CCN(S(C)(=O)=O)C3)cc1-c1ncc(-c2ccc(C#N)cc2)[nH]1` [Compound 101], the IC50 under setting [1] was 0.001 to 1 nM. `O=S(=O)(NCCO)N1CCc2c(cccc2Nc2ccc(Cl)c(-c3ncc(-c4ccccc4)[nH]3)c2)C1` [Compound 17]: under setting [1], the IC50 fell in the range of 0.001 to 1 nM.

Consider `COc1ccnc(-c2cc(Nc3cccc4c3CCN(S(C)(=O)=O)C4)ccc2C)n1` [Compound 239], for which the IC50 under setting [1] lay within 10 to 100 nM. In the case of `Cc1ccc(-c2cc(Nc3cccc4c3CCN(CC(F)(F)CO)C4)ccc2C)nc1` [Compound 212], under setting [1], the IC50 lay within 0.001 to 1 nM. Take `CS(=O)(=O)N1CCc2c(cccc2Nc2ccc(C#N)c(-c3ccc(C#N)cc3)c2)C1` [Compound 155]: under setting [1], the half-maximal inhibitory concentration (IC50) lay in the range of 100 to 1000 nM. In the case of `Cc1ccc(Nc2cccc3c2CCN(S(C)(=O)=O)C3)cc1-c1ccc(CNCC(O)CO)cc1` (stereo not drawn) [Compound 157], under setting [1], the IC50 fell in the range of 1000 to 10000 nM.

As to `Cc1ccc(Nc2cccc3c2CCN(S(C)(=O)=O)C3)cc1C(=O)Nc1ccc(C#N)cc1` [Compound 160], the IC50 is, setting by setting: under setting [2], 1 nM; under setting [1], 0.001 to 1 nM. Consider `C[S+]([O-])CCCN1CCc2c(cccc2Nc2ccc(Cl)c(-c3ncc(-c4ccccc4)[nH]3)c2)C1` (stereo not drawn) [Compound 47], for which, under setting [1], the IC50 is 1 to 10 nM. `Cc1ccc(Nc2cccc3c2CCN(CCS(C)(=O)=O)C3)cc1-c1cc2ccccc2cn1` [Compound 315]: the IC50 under setting [1] is 0.001 to 1 nM. `Cc1ccc(Nc2cccc3c2CCN(S(C)(=O)=O)C3)nc1-c1ccccn1` [Compound 312]: the IC50 under setting [1] was 1 to 10 nM. As for `Cc1ccc(Nc2cccc3c2CCN(CC(C)(C)F)C3)cc1-c1ccc(F)cn1` [Compound 182], the IC50 under setting [1] lay in the range of 1 to 10 nM. Turning to `Cc1ccc(-c2cc(Nc3cccc4c3CCN([C@@H]3CCS(=O)(=O)C3)C4)ccc2C)nc1` [Compound 279], the IC50 under setting [1] lay in the range of 0.001 to 1 nM. Turning to `Cc1cnc(-c2cc(Nc3cccc4c3CCN(CCS(C)(=O)=O)C4)ccc2C)nc1` [Compound 263], the IC50 under setting [1] lay in the range of 100 to 1000 nM. For the compound `Cc1ccnc(-c2cc(Nc3cccc4c3CCN(S(C)(=O)=O)C4)ccc2C)n1` [Compound 219], the IC50 under setting [1] lay within 10 to 100 nM.

Turning to `OC1CCC(N2CCc3c(cccc3Nc3ccc(Cl)c(-c4ncc(-c5ccccc5)[nH]4)c3)C2)CC1` (stereo not drawn) [Compound 37], the IC50 was 0.73 nM under setting [2] and 0.001 to 1 nM under setting [1]. As for `COc1ccc(-c2cc(Nc3cccc4c3CCN(C3CCS(=O)(=O)CC3)C4)ccc2C)nn1` [Compound 306], the IC50 under setting [1] was in the range of 1 to 10 nM. For `Cc1ccc(Nc2cccc3c2CCN(S(C)(=O)=O)C3)cc1C(=O)N(C)c1ccccc1` [Compound 193], under setting [1], the IC50 fell in the range of 100 to 1000 nM. Regarding `Cc1ccc(Nc2cccc3c2CCN(C2CCS(=O)(=O)C2)C3)cc1-c1ccccn1` (stereo not drawn) [Compound 265], under setting [1], the IC50 fell in the range of 0.001 to 1 nM. `Clc1ccc(Nc2ccc3c(c2)CN(C2CCOCC2)CC3)cc1-c1nc(-c2ccccc2)c[nH]1` [Compound 346]: under setting [1], the IC50 fell in the range of 10 to 100 nM. As for `C[C@@H](C(=O)O)N1CCc2c(cccc2Nc2ccc(Cl)c(-c3nc(-c4ccccc4)c[nH]3)c2)C1` [Compound 79], the IC50 under setting [1] was in the range of 1 to 10 nM.

With `Cc1ccc(Nc2cccc3c2CCN(C(=O)C(C)(CO)CO)C3)cc1-c1ncc(-c2cccnc2)[nH]1` [Compound 76], the IC50 under setting [1] lay within 1 to 10 nM.

For `CCS(=O)(=O)CCN1CCc2c(cccc2Nc2ccc(C)c(-c3ncccc3F)c2)C1` [Compound 283], the IC50 under setting [1] lay in the range of 1 to 10 nM.
